Measurements as given in paper PMC11571012, “Synthesis and Preclinical Evaluation of a Bispecific PSMA-617/RM2 Heterodimer Targeting Prostate Cancer” (ACS Medicinal Chemistry Letters, 2024).
Like-named read-outs stand apart in the source and are kept apart here.

Legend:
[1] = Radio RP-HPLC analysis (elution order); settings: radiolabeled ligands; Chromolith RP-18e, 0−100% AcCN (0.1% TFA) in 6 min, 4 mL/min; said to agree with logD
PSMA (LNCaP, PC-3 PIP) = settings: read-out: Ki, LNCaP (literature), LNCaP cells, literature data, ref 2 (SI); cited from earlier work
Method: This mixture was removed after incubation and the wells were washed on a multiscreen vacuum manifold (Millipore, Billerica, MA) three times with PBS. The following detection of cell-bound radioactivity was measured using a gamma counter (Packard Cobra II, GMI, Minnesota, USA).

[2] = target: T1, PSMA receptor in LNCaP cells (PSMA+, GRPR-) (Homo sapiens, UniProt Q04609); assay: Cell-based competitive binding assay in LNCaP cells against [68Ga]Ga-PSMA-10; settings: 10^5 cells/well, against [68Ga]Ga-PSMA-10 0.75 nM, analyte 0–5000 nM, 45 min, gamma counter, quadruplicate
T1 construct: Briefly, LNCaP 10 5 cells per well; host or cells: LNCaP cells
Method: Each value was measured in quadruplicate.
Cell Culture & cell assays
In vitro and in vivo experiments were performed with the following cell lines: the GRPR positive PC -3 cells
supplemented with 10% fetal calf serum and 2 mM L -glutamine (Invitrogen, Carlsbad, CA, USA). Cells
were grown at 37 °C in humidified air with 5% CO 2. Trypsin-ethylenediaminetetraacetic acid (trypsin -
EDTA; 0.25% tryps in, 0.02% EDTA, Invitrogen) was used for cell harvesting.
Determination of Binding Affinity in LNCaP and PC -3 cells
3-5 Briefly, LNCaP 10 5 cells per well
PSMA-10, precursor purchased from ABX, Radeberg , Germany) and an ascending series of 12 different
45 min). This mixture was removed after incubation and the wells were washed on a multiscreen vacuum
manifold (Millipore, Billerica, MA) three times with PBS. The following detection of cell-bound
radioactivity was measured using a gamma counter (Packard Cobra II, GMI, Minnesota, USA).
fitted with a nonlinear regression algorithm (GraphPad Software) to determine the 50% inhibitory
concentration (IC50) values.
min. After incubation the mixture was removed, the wells were washed with PBS and the cell -bound
radioactivity was measured using a gamma counter (Hidex AMG - Automated Gamma Counter).

[3] = target: T1, PSMA receptor in LNCaP cells (PSMA+, GRPR-); settings: standard used at C = 0.75 nM; no reference given; read-out: IC50 of standard radioligand (PSMA); cited from earlier work
PC-3 tumors = settings: in vivo; cited from earlier work

T1 sequence (Q04609 whole entry): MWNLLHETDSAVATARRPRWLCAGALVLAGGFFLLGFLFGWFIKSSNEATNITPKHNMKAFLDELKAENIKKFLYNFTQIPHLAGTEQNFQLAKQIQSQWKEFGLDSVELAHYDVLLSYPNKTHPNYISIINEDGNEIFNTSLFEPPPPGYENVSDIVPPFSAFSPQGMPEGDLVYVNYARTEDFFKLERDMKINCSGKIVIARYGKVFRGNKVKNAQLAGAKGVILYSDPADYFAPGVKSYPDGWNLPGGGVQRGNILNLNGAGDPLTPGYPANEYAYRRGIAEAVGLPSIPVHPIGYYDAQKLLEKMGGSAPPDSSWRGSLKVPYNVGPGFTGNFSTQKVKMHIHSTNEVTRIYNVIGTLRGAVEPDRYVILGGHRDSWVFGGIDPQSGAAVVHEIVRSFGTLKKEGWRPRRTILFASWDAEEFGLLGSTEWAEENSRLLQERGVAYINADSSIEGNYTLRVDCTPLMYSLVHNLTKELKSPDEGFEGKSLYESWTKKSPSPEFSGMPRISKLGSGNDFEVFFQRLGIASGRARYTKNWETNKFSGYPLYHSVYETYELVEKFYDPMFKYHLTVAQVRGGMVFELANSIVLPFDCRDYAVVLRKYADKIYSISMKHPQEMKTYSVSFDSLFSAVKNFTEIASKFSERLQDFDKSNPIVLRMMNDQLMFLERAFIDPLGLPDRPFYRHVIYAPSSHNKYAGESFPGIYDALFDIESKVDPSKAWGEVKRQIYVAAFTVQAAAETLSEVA

In the case of `O=C(O)CC[C@H](NC(=O)N[C@@H](CCCCNC(=O)[C@H](Cc1ccc2ccccc2c1)NC(=O)[C@H]1CC[C@H](CNC(=O)CN2CCN(CC(=O)O)CCN(CC(=O)O)CCN(CC(=O)O)CC2)CC1)C(=O)O)C(=O)O` [PSMA-617 (1), vipivotide tetraxetan], the “Elution order in radio RP-HPLC” value [1] is listed as “eluted first”, the Ki (PSMA (LNCaP, PC-3 PIP)) is listed as 2.34 nM and the IC50 [2] is listed as 6.41 nM.

For “[Glu-urea-Lys(Ahx)]2-HBED-CC [[^68Ga]Ga-PSMA-10]”, the IC50 [3] is listed as 3.8 ± 1.8 nM.

In the case of `CC(C)C[C@H](NC(=O)C[C@H](O)[C@H](CC(C)C)NC(=O)[C@H](Cc1c[nH]cn1)NC(=O)CNC(=O)[C@@H](NC(=O)[C@H](C)NC(=O)[C@H](Cc1c[nH]c2ccccc12)NC(=O)[C@H](CCC(N)=O)NC(=O)[C@@H](Cc1ccccc1)NC(=O)CN1CCC(NC(=O)CN2CCN(CC(=O)O)CCN(CC(=O)O)CCN(CC(=O)O)CC2)CC1)C(C)C)C(N)=O` [[68Ga]Ga-RM2] [metal not drawn], the Kidneys uptake (PC-3 tumors) is given as 3.34 ± 0.54 % ID/g.
